Measured values taken from patent US6165732A, “Method for identifying apoptosis modulating compounds” (Washington University, priority 1998, dated 2000).
Where two headings read alike, the source gives them in different places.

Assays:
[1] = Cl- release (efflux) from KCl loaded synthetic lipid vesicles as a function of pH; assay type: biochemical
Method: This example illustrates that Bax and Bcl-2 induce the release of ions from synthetic lipid vesicles.
Unilamellar vesicles composed of 40% 1,2 dioleoyl phosphatidyl glycerol and 60% 1,2 dioleoyl phosphatidyl choline (Avanti Polar Lipids) were prepared in 100 mM KCl, 2 mM CaNO3 and 10 mM dimethylglutarate, pH 5.0 as previously described (Peterson et al., J. Membr. Biol. 99:197-204, 1987). The resulting liposomes were diluted 200-fold to a concentration of 0.05 mg/ml in 100 mM KNO3, 2 mM CaNO3 and 10 mM dimethylglutarate which was titrated to pH 3.5, 4.0, 4.5, 5.0, 5.5 or 6.0 with NaOH or with acetic acid. BaxΔC19 and Bcl-2ΔC21 were added at a concentration of 500 ng/ml and Cl^- efflux was measured with a Cl^- combination ion selective electrode (Accumet). Triton X-100 (0.1%) was added to release the total encapsulated Cl^- at the times indicated by the arrows in FIG. 1. The total amount of Cl^- released was quantitated by a calibration curve produced by successive additions of 25 μM KCl.

[2] = Low pH channel formation after addition of protein to an established planar lipid bilayer; assay type: biochemical; settings: for conductance of initial channel / time to appearance of initial current: 450/150 mM KCl; for conductance of initial channel: pH 4.0, initial current; for ion selectivity of channel: low pH insertion
Description: (§1) The Bax and Bcl-2 polypeptides used in the ion channel studies reported herein were recombinant murine Bcl-2 and Bax polypeptides lacking the C-terminal signal-anchor membrane targeting sequence (Bcl-2ΔC21, amino acids 1-218 of SEQ ID NO:9 and BaxΔC19, amino acids 1-173 of SEQ ID NO:6). These deletion derivatives, also referred to herein as BaxΔTM and Bcl-2ΔTM, were used to avoid any interference of the C-terminal signal-anchor membrane targeting sequence with the capacity of internal α helices to mediate insertion into artificial lipid bilayers.
(§2) Planar lipid bilayers were prepared from soybean lipids by chloroform extraction of Azolectin Type II (10-20% choline, 80-90% negatively charged lipids) (Sigma). The chloroform was removed with a stream of nitrogen and the lipids stored under N2 until dissolved in decane at 30 mg/ml. This preparation was then stored under nitrogen. The 0.25 mm orifice of a polystyrene cuvette (Warner Instruments) was pretreated with 2 μl of the decane lipid solution and the solvent allowed to evaporate. The cuvette was then placed into a bilayer chamber and connected to Bilayer Clamp BC525-a (Warner Instruments) by Ag/AgCl electrodes via agar salt bridges. Data were collected using an Axoscope (Axon Instruments Software), archived on video tape using a Neurocorder DR-484 (Neuro Data Instruments), and analyzed using Origin (Microcal) and pClamp6 (Axon Instruments Software). Slope conductance was calculated by the method of least squares and the variance is given. Ion selectivities were calculated using the reversal potential and the Goldman equation. The reversal potential means the zero-current potential of a bilayer membrane. The reversal potential is zero with no ion gradient and the magnitude of the potential in the presence of an ion gradient reflects the cation versus anion selectivity of the bilayer.
Bilayers were formed by spreading with a polished glass rod and allowed to thin to a capacitance of 0.4 μF/cm^2 at which point the noise was typically 0.2 pA and the leak conductance was 20 pS. The salt concentrations were initially 450 mM KCl in the cis chamber (1.0 ml) and 150 mM KCl in the trans chamber (0.5 ml) to permit identification of spontaneous initial currents. Outward (positive) currents were defined as K^+ moving cis-to trans. All solutions were buffered to pH 4.0 with 10 mM K-acetate. BaxΔTM or Bcl-2ΔTM (approx. 1 μg) was added to the cis chamber with mixing. After initial currents were identified the soluble protein was usually removed by exchanging the cis chamber contents with aliquots of buffer.

[3] = Channels in planar lipid bilayers at pH 7.0 after fusion with unilamellar proteoliposomes containing the protein; assay type: biochemical
Description: as §1, §2
Proteoliposomes for fusion with a planar lipid bilayer were prepared as follows. Purified protein (0.25 μg) was added to […] lipid (Azolectin) in 20 μl of KCl buffer (150 mM KCl, 10 mM HEPES, pH 7.0). This mixture was placed into a dialysis bag with a molecular weight cutoff of 12 KDa. After 16 hours dialysis in 3000 volumes of 150 mM KCl (10 mM HEPES, pH 7.0) the proteoliposome suspension was removed and placed on ice for immediate use. The bilayer was set up with a 450:150 cis to trans KCl gradient to identify the ion selectivity of the initial currents. Fusion was initiated by adding 5-20 μl of lipid vesicles (only 5-20 ng of protein) to the cis bilayer chamber with mixing. Non-fused proteoliposomes were removed from the compartments and solutions exchanged as described above.
Control bilayers containing Bcl-2 or Bax channels were prepared by fusion of unilamellar proteoliposomes with incorporated Bcl-2ΔTM or BaxΔTM with an established planar bilayer as described in Example 4. Test bilayers containing Bcl-2 channels were prepared in the same manner to which an 11 mer Bax peptide (SEQ ID NO:1) with known death agonist activity was added at 20, 50 or 100 μM. A voltage of 80 mV was applied to each control and test channel and its conductance measured for a period of 12 to 16 seconds and the frequency that each channel was measured at a particular conductance level (pA) was calculated. The data, representing about 500,000 measurements, are shown as histograms in FIGS. 8A-8E. […]

[4] = planar lipid bilayers, pH 7.0 (Antonsson et al.), cited from earlier work
[5] = physiological pH (Antonsson et al.); cited from earlier work
[6] = 450/150 mM KCl gradient, pH 7.0

Substance: Bax: recombinant murine Bax polypeptide lacking the C-terminal signal-anchor membrane targeting sequence (amino acids 1-173 of SEQ ID NO:6)
- highest pH with retained activity (ion release from liposomes) [1]: ≤ 5.5 pH
- pH of maximum release of Cl- ([1]; 500 ng/ml, FIG. 1A): 4.0-4.5 pH
- Cl- release from KCl loaded lipid vesicles ([1]; pH 3.5): 41%
- release of Cl-, decrease from maximum ([1]; pH 3.5, 500 ng/ml, FIG. 1A): 50%
- Cl- release from KCl loaded lipid vesicles ([1]; pH 4.0, same quantities of each protein): 75%
- Cl- release from KCl loaded lipid vesicles ([1]; pH 5.0): 41%
- release of Cl-, decrease from maximum ([1]; pH 5.0, 500 ng/ml, FIG. 1A): 50%
- release of Cl-, decrease from maximum ([1]; pH 5.5, 500 ng/ml, FIG. 1A): less than 10%
- release of Cl- on pH shift ([1]; pH 6.0 shifted to pH 4.0, FIG. 1C): a rapid release of Cl^-
- ratio of channel indicator release at pH 3.5 and pH 4.0 (R3.5/4.0) ([1]; stated as behaviour like Bax / Bcl-2 (criterion)): less than 1
- initial current (direction) ([2]; 450/150 mM KCl cis to trans, pH 4.0, spontaneous (OS)): initial, inward current
- conductance of initial channel [2]: 22 (s.d. 5, n=5) pS
- conductance of initial channel ([2]; listed as BaxΔTM): 22 pS
- time to appearance of initial current ([2]; pH 4.0, listed as BAXΔTM): ≤ 10 min
- time to appearance of initial current ([2]; pH 4.0, listed as BaxΔTM): Four
- duration of channel transition ([2]; +40 mV, pH 4.0): ~ 5 mins
- current level, C and OS ([2]; +40 mV, transition, pH 4.0): 0 pA
- current level, O1 ([2]; +40 mV, transition, pH 4.0): 2.36 pA
- current level, O1+2 ([2]; +40 mV, transition, pH 4.0): 8.81 pA
- current level, O2 ([2]; +40 mV, transition, pH 4.0): 6.4 pA
- current level, C ([2]; -40 mV, transition, pH 4.0): 0 pA
- current level, O1 ([2]; -40 mV, transition, pH 4.0): -10.9 pA
- current level, O1+2 ([2]; -40 mV, transition, pH 4.0): -30.5 pA
- current level, OS ([2]; -40 mV, transition, pH 4.0): -2.14 pA
- voltage dependence ([2]; hyperpolarization to -40 mV, pH 4.0): increased the channel activity
- slope conductance of final stable channel ([2]; pH 4.0): 0.731±0.01 nS
- PK/PCl (Cl- selectivity, average over current levels) ([2]; pH 4.0, from reversal potential): 0.10
- effect of shifting pH on conductance and selectivity ([2]; pH 4.0 to 7.0): altered the conductance and selectivity of Bax
- current-voltage relation ([2]; pH 7.0): linear with voltage
- conductance after pH shift to 7.0 ([2]; pH 7.0, 450/150 mM KCl gradient): 0.329±0.002 nS
- conductance after pH shift to 7.0 ([2]; pH 7.0, both chambers 150 mM KCl): 0.302±0.008 nS
- PK/PCl after pH shift to 7.0 ([2]; pH 7.0 after insertion at pH 4.0): 0.5
- time from initial appearance to channel progression ([2]; planar bilayers): 2 to 4 min
- ion selectivity of channel ([2]; planar bilayers): consistent anion selectivity
- ion selectivity of channel ([2]; planar bilayers, listed as BAX): Cl^- selective
- less frequent conductance peak ([3]; 80 mV, no peptide): about 65 pA
- PK/PCl from reversal potential [3, 6]: 0.32
- initial current (direction) [3, 6]: inward (PK <PCl) current
- duration of periodic channel closing ([3]; -70 mV, symmetrical 150 mM KCl): 20 to 30 ms
- conductance pattern ([3]; neutral pH): simpler single channel conductance pattern
- ion selectivity of channel ([3]; neutral pH, proteoliposome fusion): Cl^- -selective
- channel conductance at negative voltages ([3]; symmetrical 150 mM KCl, pH 7.0): 1.5 (sd 0.3, n=3) nS
- rectification ([3]; symmetrical KCl, neutral pH): Mild outward rectification
- ion selectivity [4]: cation selective
- permeability ratio of Na+ to Cl- [4]: about 2.1
- ion selectivity ([4]; listed as BaxΔTM): slightly cation selective
- pore-forming activity in liposomes [5]: intrinsic pore-forming activity
